Laboratory results published in US10111842B2, “Eutectic solvents and uses thereof” (UNIVERSITY OF OSLO, priority 2014, dated 2018).
Where two headings read alike, the source gives them in different places.

Tests used:
[1] = tested on: Enterococcus faecalis (ATCC 19433); assay: Bacterial studies, blue light 9.5 J/cm^2 or dark, drop plate CFU (Examples 4-6); format: cell-based
Description: (§1) Briefly, the components were mixed and dissolved in warm water (˜50° C.) before evaporation of the solvent at 45° C. for 15 min with a rotatory evaporator. The resulting NADES were transferred to polypropylene tubes with a tight cap. The individual components of each NADES were also prepared as solutions in MilliQ water in a concentration similar to the concentration in the final NADES preparation. All samples were diluted 1:1 with bacterial suspension (OD600 0.03) or 1:50, 1:100 and 1:200 with phosphate buffered saline (PBS, pH 7.4, Lonza, Verviers, Belgium) prior to dilution 1:1 with the bacterial suspension immediately before the bacterial studies.
(§2) The overnight cultures were centrifuged (4000 g, 22° C., 10 min), the medium replaced and diluted with PBS to OD600 0.03. The bacterial suspensions were mixed 1:1 with the samples described in the previous paragraph. A volume of 200 μl from each sample was transferred to the first and seventh well on each row on a 96 well plate (Nunclon sterile 96 well plate with lid, Thermo Fischer Scientific, Waltham, Mass.). Two identical plates were made each time, one for light treatment and one for dark controls. The plates containing E. faecalis or S. aureus samples were incubated for 10 min (37° C.), irradiated with blue light for 10 min (corresponding to 9.5 J/cm^2±10%) and incubated again for 10 min (37° C.). The plates containing E. coli samples were incubated for 30 min (37° C.), irradiated with blue light for 30 min (corresponding to 27 J/cm^2±10%) and incubated again for 30 min (37° C.). The plates containing the dark controls were treated similarly, but covered with aluminium foil during the irradiation period and placed beside the irradiation chamber. […] After treatment, the samples were diluted according to the 6×6 drop plate procedure, modified to 4×4 (each treatment was performed with four parallels). A volume of 15 μl from each dilution was then plated onto TSB agar plates, left to dry for a few minutes and incubated overnight (37° C.). Viable colony forming units (CFU)/ml were calculated by counting the CFUs, multiplying with the dilution factor and dividing by the application volume.
(§3) Briefly, the components of each NADES (see Table 7) were mixed and dissolved in a round flask with 50 ml of warm water (˜50° C.) before evaporation of the solvent at 45° C. for 15 min with a rotatory evaporator. TMAP (Frontier Scientific, Inc., Logan, Utah, USA) was then added to each NADES. […] The final concentration of TMAP was 1 nM. Samples of TMAP were also prepared in purified water (MilliQ) to be 1 nM after dilution 1:200 with PBS (pH 7.4, Lonza, Verviers, Belgium) or with a 6.8 mM citric acid solution (pH ˜4) and bacterial suspension.
(§4) TCPP (Frontier Scientific, Inc., Logan, Utah, USA) was added to each NADES. […] The final TCPP concentrations were 0.5 nM-1 μM. Samples of TCPP were also prepared in ethanol to be 1 nM-1 μM after dilution 1:200 with PBS (pH 7.4, Lonza, Verviers, Belgium) or with a 6.8 mM citric acid solution (pH ˜4) and bacterial suspension.

[2] = tested on: Staphylococcus aureus (strain Newman); assay: as above; format: cell-based; details: for toxicity / eradication of S. aureus: dilution 1:1 with bacterial suspension
Description: as §1, §2, §3, §4

[3] = tested on: Escherichia coli (ATCC 25922); assay: Bacterial studies, blue light 27 J/cm^2 or dark, drop plate CFU (Examples 4-6); format: cell-based; details: for surviving colony forming units per ml / surviving colony forming units: E. coli
Description: as §1, §2, §3, §4

[4] = tested on: S. epidermidis (ATCC 35984); assay: Phototoxicity studies, blue light 9.5 J/cm^2 or dark (Example 7); format: cell-based, Staphylococcus epidermidis
Description: as §2
(§5) The concentrations were adjusted give a final concentration of 1-20 nM porphyrin in the bacterial suspension after dilution with PBS (see Table 9). Aqueous solutions of 2.7 M citric acid, 2.3 M xylitol, 2.5 M sucrose, 5 M choline chloride and pure NADES, respectively, were used to investigate the toxicity of the individual compounds and NADES without a photosensitiser. The concentrations of the excipients were the same as in the respective NADES after evaporation of unbound water. The solutions were diluted totally 1:200 (or more) in the bacterial studies.
(§6) The treatments were performed with four parallels.
(§7) Gram-positive bacteria are generally considered to be more susceptible to photodynamic therapy than Gram-negative bacteria. Therefore, S. epidermidis was incubated for 10 min (37° C.), irradiated with blue light for 10 min (9.5 J/cm^2) and incubated again for 10 min while K. pneumoniae and P. aeruginosa were incubated for 30 min (37° C.), irradiated with blue light for 30 min (27 J/cm^2) and incubated again for 30 min.

[5] = tested on: C. albicans (ATCC CRM-10231); assay: Antifungal toxicity studies, blue light 27 J/cm^2 or dark (Example 8); format: cell-based, Candida albicans
Description: Briefly, the components of each NADES (see Table 13) were mixed and dissolved in a round flask with 50 ml of warm water ( 50° C.) before evaporation of the solvent at 45° C. for 15 min with a rotatory evaporator. The pure […] 35 and NADES 39 were mixed undiluted or after dilution 1:50 with phosphate buffered saline (PBS, Lonza, Verviers, Belgium) with the yeast suspension (1:1) in the toxicity studies. […] The concentrations of the excipients were the same as in the respective NADES after evaporation of unbound water. The solutions were diluted totally 1:1 or 1:100 with PBS and yeast suspension in the toxicity studies. […] The overnight cultures were centrifuged (4000 g, 22° C., 10 min), the medium replaced and diluted with PBS to OD600 0.1.

[6] = tested on: K. pneumoniae (ATCC 31844); assay: Phototoxicity studies, blue light 27 J/cm^2 or dark (Example 7); format: cell-based, Klebsiella pneumoniae; details: ±SD, n = 4; for % survival (27 J/cm^2): Dilution 1:200, blue light; for % survival (dark): Dilution 1:200, no irradiation
Description: as §2, §5, §6, §7

[7] = tested on: P. aeruginosa (ATCC 9027); assay: as above; format: cell-based, Pseudomonas aeruginosa; details: for % survival (27 J/cm^2) / % survival (dark): ±SD, n = 4; for toxicity to P. aeruginosa: individual components of NADES 35, dilution 1:800
Description: as §2, §5, §6, §7

[8] = Polarity (ENR) testing with Nile red; format: physicochemical; details: Nile red absorption maximum
Description: Polarity (ENR) testing of NADES was performed with Nile red (NR) as a solvatochromatic probe. A small amount of NR was added to each deep eutectic solvent. The recorded absorption maximum (λmax) of NR was applied in the formula ENR (kcal/mol^−1)=hcλmaxNA=28591/λmax where h is Planck's constant, c is the velocity of light and NA is Avogadro's number (Ogihara W, et al., Chem Lett 2004; 33: 1414-1415; Saxena R, et al., Chem Phys Lipids 2014; 183: 1-8).

[9] = Dilution 1:200, blue light, ±SD, n = 4
[10] = Dilution 1:200, no irradiation, ±SD, n = 4
[11] = 2.1 M fructose, […] xylitol, […] sucrose, 5 M choline chloride diluted 1:1 or 1:100, dark or light, p>0.05
[12] = 1 nM TMAP in the citric acid solution, light
[13] = 1 nM TMAP in the diluted NADES 14, light

## O=C(O)CC(O)C(=O)O (racemic) [Malic acid, DL-malic acid]
[1]; dilution 1:1 and 1:100 with PBS, blue light
  photoinactivation of E. faecalis: complete photoinactivation
[2]
  toxicity / eradication of S. aureus: toxic
[2]; dilution 1:100
  toxicity to S. aureus: not toxic
[3]; 2.1 M solution, 1:1 dilution and 1:100 dilution
  toxicity to E. coli: highly toxic

## C[N+](C)(C)CCO.[Cl-] [Choline chloride]
[1]
  toxicity of individual NADES component to E. faecalis: not toxic
[3]
  toxicity of NADES 26 components to E. coli: non-toxic
[4]
  % survival (9.5 J/cm^2): 124 ± 7%
  % survival (dark): 104 ± 12%
[5]
  reduction in viable C. albicans: No significant reduction

## O=C(O)CC(O)(CC(=O)O)C(=O)O [Citric acid]
[1]; 2.7 M solution, dilution ratios 1:1 up to 1:100
  toxicity to E. faecalis: toxic
[1]; dilution 1:200, total treatment 30 min
  toxicity to E. faecalis: did not reduce the number of viable colony forming units
[2]
  toxicity / eradication of S. aureus: complete eradication
[2]; dilution 1:100
  toxicity to S. aureus: not toxic anymore
[3]; dilution 1:1, with and without blue light
  toxicity / eradication of E. coli: very toxic
[3]; dilution 1:100 (up to 1:100) with PBS, blue light
  phototoxicity to E. coli: killed all the bacteria present
[4]; [9]
  % survival (9.5 J/cm^2): 0.1 ± 0.0%
[4]; [10]
  % survival (dark): 0.7 ± 0.3%
[6]
  % survival (27 J/cm^2): 145 ± 2%
  % survival (dark): 38 ± 18%
[7]; Dilution 1:400, blue light
  % survival (27 J/cm^2): 6 ± 2%
[7]; Dilution 1:400, no irradiation
  % survival (dark): 37 ± 9%
[7]
  toxicity to P. aeruginosa: not toxic at all
[5]; 2.7 M diluted 1:1
  reduction in viable C. albicans after incubation in the dark: slight, though significant, reduction
[5]; 2.7 M diluted 1:1, 27 J/cm^2 blue light
  reduction in viable C. albicans after light treatment: 73±8%

## O=C(O)/C=C\C(=O)O [Maleic acid]
[1]; dilutions 1:1 to 1:400 with PBS (maleic acid 3.1 M before dilution)
  eradication of E. faecalis: complete eradication
[2]; dilution 1:400
  toxicity to S. aureus: no longer toxic
[2]; dilution ratios 1:1 up to 1:200, total treatment 30 min
  eradication of S. aureus: complete eradication
[3]; 3.1 M solution, even at dilution 1:400
  toxicity to E. coli: highly toxic

## OC[C@H]1O[C@@](CO)(O[C@H]2O[C@H](CO)[C@@H](O)[C@H](O)[C@H]2O)[C@@H](O)[C@@H]1O [Sucrose]
[4]; [9]
  % survival (9.5 J/cm^2): 134 ± 14%
[4]; [10]
  % survival (dark): 113 ± 5%
[6]
  % survival (27 J/cm^2): 84 ± 18%
  % survival (dark): 124 ± 9%
[7]; Dilution 1:200, blue light
  % survival (27 J/cm^2): 98 ± 19%
[7]; Dilution 1:200, no irradiation
  % survival (dark): 204 ± 22%
[5]; [11]
  reduction in viable C. albicans: No significant reduction

## OC[C@@H](O)[C@H](O)[C@@H](O)CO [Xylitol]
[3]; choline chloride 5 M, xylitol […]
  toxicity of NADES 26 components to E. coli: non-toxic
[4]; [9]
  % survival (9.5 J/cm^2): 118 ± 12%
[4]; [10]
  % survival (dark): 98 ± 10%
[6]
  % survival (27 J/cm^2): 74 ± 17%
  % survival (dark): 72 ± 19%
[7]; Dilution 1:200, blue light
  % survival (27 J/cm^2): 143 ± 17%
[7]; Dilution 1:200, no irradiation
  % survival (dark): 140 ± 19%
[7]
  toxicity to P. aeruginosa: not toxic at all
[5]; [11]
  reduction in viable C. albicans: No significant reduction

## O=C(CO)[C@@H](O)[C@H](O)[C@H](O)CO [fructose, D-(−)-fructose]
[1]
  toxicity of individual NADES component to E. faecalis: not toxic
[5]; [11]
  reduction in viable C. albicans: No significant reduction

## CO [methanol]
[8]
  ENR: 51.9 kcal/mol

## O [water]
[8]
  ENR: 48.2 kcal/mol

## tetra-(4-carboxyphenyl)-porphine [TCPP]
[1]; 1 nM TCPP in acidic NADES 3
  eradication of E. faecalis after photodynamic treatment: almost complete eradication
[1]; 1 nM TCPP in acidic NADES 14
  eradication of E. faecalis after photodynamic treatment: almost complete eradication
[1]; 1 nM TCPP in acidic NADES 40
  eradication of E. faecalis after photodynamic treatment: almost complete eradication
[1]; 1 nM TCPP in citric acid solution
  eradication of E. faecalis after photodynamic treatment: almost complete eradication
[1]; 1 nM TCPP in pure PBS
  phototoxicity to E. faecalis: not very phototoxic
[1]; 1 μM TCPP in neutral NADES 26
  eradication of E. faecalis after light treatment: complete eradication
[1]; 1 μM TCPP in pure PBS, light, E. faecalis
  surviving colony forming units: approximately 300 colony forming units
[2]; 1 nM TCPP in NADES 3, light
  viable S. aureus after treatment: no viable bacteria detected
[2]; 1 nM TCPP in pure PBS
  phototoxicity to S. aureus: killed half of the viable bacteria
[2]; TCPP up to 1 μM in PBS
  photoinactivation of S. aureus: did not result in complete photoinactivation
[2]; TCPP up to 1 μM in pH-neutral NADES 26
  photoinactivation of S. aureus: did not result in complete photoinactivation
[3]; 1 nM TCPP
  phototoxicity to E. coli: not phototoxic
[3]; 40 nM TCPP in pure PBS
  phototoxicity to E. coli: not phototoxic
[3]; 0.6 μM TCPP in NADES 40
  photoinactivation of E. coli: complete photoinactivation
[3]; 0.6 μM TCPP in citric acid solution, light
  surviving colony forming units per ml: 20 000 colony forming units per ml

## tetra-(4-trimethylanilinum)-porphine tetrachloride [TMAP]
[1]; 1 nM TMAP in NADES 14 (final dilution 1:400), E. faecalis
  increase of phototoxicity compared to the citric acid solution: 35 times
[3]; 1 nM TMAP in NADES 35, dilution 1:800 with PBS
  viable E. coli after photodynamic treatment: no viable
[3]; 1 nM TMAP in PBS, p>0.05
  phototoxicity to E. coli: not enough to make this porphyrin significantly phototoxic
[3]; 1 nM TMAP in neutral NADES 26 (1:200), p>0.05
  phototoxicity to E. coli: not enough to make this porphyrin significantly phototoxic
[3]; 1 nM TMAP in neutral NADES 39 (1:100), p>0.05
  phototoxicity to E. coli: not enough to make this porphyrin significantly phototoxic
[3]; [12]
  surviving colony forming units: 0.2%
  surviving colony forming units per ml: 10 000 colony forming units per ml
[3]; [13]
  surviving colony forming units: 0.2%
  surviving colony forming units per ml: 10 000 colony forming units per ml
[4]
  photoinactivation of S. epidermidis: did not result in complete photoinactivation
[7]; 1 nM or 5 nM TMAP in PBS
  phototoxicity to P. aeruginosa: not phototoxic
[5]
  toxicity to C. albicans: not toxic
